This note sets out measurements from patent publication US20220370440A1 (Lead Discovery Center GmbH, priority 2018, published 2022).

The structures appear in SMILES notation. pIC50: −log10 of the molar value.

One data set has as its target T1, HER2 INS YVMA (Homo sapiens, UniProt P04626, INS775YVMA).
T1 construct: purchased DPF
The experiment in a line: Lance Kinase Activity Assay, HER2 INS YVMA (Her2 Exon 20 INSYVMA Lance). It is filed as biochemical. The conditions noted are these: biochemical Lance assay. In outline: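 IC50 was fitted to sigmoidal curves of TR-FRET signal (665 and 615 nm emission after 340 nm excitation) from an Eu anti-phospho antibody binding the phosphorylated ULight peptide. The ATP-started reaction ran 1 h at RT and was then quenched with 10 mM EDTA plus antibody for a further 1 h. Compounds were tested as 8-point, 3-fold dilutions.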

The test system of another data set is H1975. The experiment in a line: H1975 CellTiter-Glo. The data set is classed as cell-based. Conditions: Homo sapiens, NCI-H1975; 72 h compound incubation; read-out: H1975 CTG IC50. The method in brief: (§1)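 ATP-based luminescent viability read after 72 h compound exposure (DMSO vehicle, range of concentrations), cells plated 24 h beforehand at 37° C, 5% CO2. IC50 by dose-response fitting; 10 μM Staurosporine and DMSO controls, Z′-factor ≥0.5 required.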

The test system of a further data set is A431. The experiment in a line: A431 CellTiter-Glo. The data set is classed as cell-based. Conditions: Homo sapiens, A-431; 72 h compound incubation; read-out: A431 CTG IC50. The method in brief:
as §1

A short description of data set [1]: Metabolic stability in mouse liver microsomes without cofactor NADPH. The data set is classed as in vitro ADME. Conditions: 3 μM test compound, mouse liver microsomes, without NADPH, 50 min, 37° C., LC-MS/MS. The method in brief: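 Cofactor-free incubation: no NADPH added to mouse liver microsomes, with compound at 3 μM and 37° C. Remaining parent was quantified by LC-MS/MS at time points up to 50 minutes to track depletion.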
On the technique in general: Liver microsomes are a subcellular fraction often used to study metabolism.

Data set [2] concerns the target Her2 Exon 20 INSYVMA Ba/F3 (Homo sapiens, UniProt P04626, DUP772-775, cells depend on it). The experiment in a line: Her2 Exon 20 INSYVMA Ba/F3 CellTiter-Glo. It is filed as cell-based. Conditions: CellTiter-Glo, 72 h, read-out: Her2 Exon 20 INSYVMA Ba/F3 CTG IC50. The method in brief:
(§2)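 ATP-based luminescence (CellTiter-Glo) after 72 h compound exposure gives viability; IC50 from dose-response fit. Cells seeded 24 h ahead at 37 °C, 5% CO2. Controls: DMSO vehicle and 10 μM staurosporine; runs kept only if Z′ ≥0.5.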
A general note: In ATP-based viability assays light output follows the ATP content of the culture.

Data set [3] has as its target EGFR Exon 20 INSNPH Ba/F3 (Homo sapiens, UniProt P00533, DUP771-773, cells depend on it). The experiment in a line: EGFR Exon 20 INSNPH Ba/F3 CellTiter-Glo. The conditions noted are these: CellTiter-Glo, 72 h, read-out: EGFR Exon 20 INSNPH Ba/F3 CTG IC50. The data set is classed as cell-based. In outline:
as §2

For another data set, the target named is EGFR T790ML858R (Homo sapiens, UniProt P00533, L858R/T790M). The experiment in a line: EGFR T790ML858R Lance assay. It is filed as biochemical. As to the method: (§3) Inhibition is indicated as […] [nM] (“−”=not measured). Compounds having an activity designated as “A” provided an IC50≤100 nM; compounds having an activity designated as “B” provided an 100 nM<IC50≤500 nM; compounds having an activity designated as “C” provided an 500 nM<IC50≤1000 nM; compounds having an activity designated as “D” provided an 1000 nM<IC50≤100000 nM; and compounds having an activity designated as “E” provided an IC50>10000 nM.
Sequence of EGFR T790ML858R (P00533 25-1210 T790M/L858R): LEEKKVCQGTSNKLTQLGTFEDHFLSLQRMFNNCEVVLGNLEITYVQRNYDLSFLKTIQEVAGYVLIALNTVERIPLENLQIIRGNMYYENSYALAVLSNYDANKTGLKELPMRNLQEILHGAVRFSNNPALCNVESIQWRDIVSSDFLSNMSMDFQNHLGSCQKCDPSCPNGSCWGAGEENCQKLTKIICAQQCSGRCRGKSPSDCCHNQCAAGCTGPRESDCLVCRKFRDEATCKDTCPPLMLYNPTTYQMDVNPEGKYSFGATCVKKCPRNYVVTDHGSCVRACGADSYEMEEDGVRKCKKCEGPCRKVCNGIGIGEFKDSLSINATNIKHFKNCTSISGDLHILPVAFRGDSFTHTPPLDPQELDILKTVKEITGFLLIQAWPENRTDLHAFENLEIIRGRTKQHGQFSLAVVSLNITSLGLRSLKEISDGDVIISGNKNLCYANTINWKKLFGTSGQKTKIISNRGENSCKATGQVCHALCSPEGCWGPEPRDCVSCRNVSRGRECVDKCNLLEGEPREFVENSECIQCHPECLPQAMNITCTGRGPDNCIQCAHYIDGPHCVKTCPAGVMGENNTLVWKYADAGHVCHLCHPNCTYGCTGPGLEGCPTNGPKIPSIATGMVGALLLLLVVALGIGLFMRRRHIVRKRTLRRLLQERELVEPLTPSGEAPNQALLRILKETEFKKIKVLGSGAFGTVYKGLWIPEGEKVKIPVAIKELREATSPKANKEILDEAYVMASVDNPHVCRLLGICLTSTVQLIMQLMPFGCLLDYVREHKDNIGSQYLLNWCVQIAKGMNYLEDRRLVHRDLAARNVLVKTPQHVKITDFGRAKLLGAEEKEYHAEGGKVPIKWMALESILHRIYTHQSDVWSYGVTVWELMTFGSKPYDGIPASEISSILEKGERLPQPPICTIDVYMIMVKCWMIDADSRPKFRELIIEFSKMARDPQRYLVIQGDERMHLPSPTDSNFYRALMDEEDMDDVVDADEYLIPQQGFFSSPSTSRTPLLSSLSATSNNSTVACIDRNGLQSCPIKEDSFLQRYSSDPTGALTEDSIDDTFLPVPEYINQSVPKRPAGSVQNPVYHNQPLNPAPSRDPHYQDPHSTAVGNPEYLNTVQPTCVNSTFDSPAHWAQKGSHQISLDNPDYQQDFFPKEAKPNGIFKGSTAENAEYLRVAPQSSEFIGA

The target in a further data set is EGFR wt (Homo sapiens, UniProt P00533). The experiment in a line: EGFR wt Lance assay. It is filed as biochemical. Here is the method:
as §3

Sequence of EGFR wt (P00533 25-1210): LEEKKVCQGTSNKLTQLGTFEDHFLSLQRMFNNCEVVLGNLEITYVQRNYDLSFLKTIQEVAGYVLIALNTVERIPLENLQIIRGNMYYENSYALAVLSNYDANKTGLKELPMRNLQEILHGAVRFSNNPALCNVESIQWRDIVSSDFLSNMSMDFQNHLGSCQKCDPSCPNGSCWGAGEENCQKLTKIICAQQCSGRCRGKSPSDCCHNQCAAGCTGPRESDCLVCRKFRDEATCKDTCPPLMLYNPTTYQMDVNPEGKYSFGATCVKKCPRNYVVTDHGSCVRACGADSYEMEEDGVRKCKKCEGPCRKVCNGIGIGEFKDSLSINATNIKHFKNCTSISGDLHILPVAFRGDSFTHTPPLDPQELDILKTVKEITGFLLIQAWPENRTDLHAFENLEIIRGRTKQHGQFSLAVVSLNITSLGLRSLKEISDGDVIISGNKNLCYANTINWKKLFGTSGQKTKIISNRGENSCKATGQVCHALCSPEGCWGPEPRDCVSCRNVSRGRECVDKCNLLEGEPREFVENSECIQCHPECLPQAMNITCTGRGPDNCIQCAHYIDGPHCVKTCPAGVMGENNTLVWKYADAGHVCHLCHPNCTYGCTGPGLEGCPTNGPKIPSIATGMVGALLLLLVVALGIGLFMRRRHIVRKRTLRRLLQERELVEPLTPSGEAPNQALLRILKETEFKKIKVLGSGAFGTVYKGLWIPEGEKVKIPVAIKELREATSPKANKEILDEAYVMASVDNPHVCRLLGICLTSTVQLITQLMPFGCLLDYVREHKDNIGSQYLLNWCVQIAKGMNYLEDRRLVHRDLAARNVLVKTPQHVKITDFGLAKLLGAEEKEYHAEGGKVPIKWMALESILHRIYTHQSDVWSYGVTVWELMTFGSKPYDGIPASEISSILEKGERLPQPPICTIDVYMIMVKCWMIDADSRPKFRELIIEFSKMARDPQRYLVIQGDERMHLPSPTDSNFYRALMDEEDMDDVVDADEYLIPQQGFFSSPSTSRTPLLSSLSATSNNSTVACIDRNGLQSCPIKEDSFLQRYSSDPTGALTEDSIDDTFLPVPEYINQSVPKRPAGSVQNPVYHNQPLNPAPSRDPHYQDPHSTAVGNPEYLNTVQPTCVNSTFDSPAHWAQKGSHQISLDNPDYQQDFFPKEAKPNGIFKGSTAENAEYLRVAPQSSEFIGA
T1 sequence (P04626 with tags, fused parts or gaps INS775YVMA): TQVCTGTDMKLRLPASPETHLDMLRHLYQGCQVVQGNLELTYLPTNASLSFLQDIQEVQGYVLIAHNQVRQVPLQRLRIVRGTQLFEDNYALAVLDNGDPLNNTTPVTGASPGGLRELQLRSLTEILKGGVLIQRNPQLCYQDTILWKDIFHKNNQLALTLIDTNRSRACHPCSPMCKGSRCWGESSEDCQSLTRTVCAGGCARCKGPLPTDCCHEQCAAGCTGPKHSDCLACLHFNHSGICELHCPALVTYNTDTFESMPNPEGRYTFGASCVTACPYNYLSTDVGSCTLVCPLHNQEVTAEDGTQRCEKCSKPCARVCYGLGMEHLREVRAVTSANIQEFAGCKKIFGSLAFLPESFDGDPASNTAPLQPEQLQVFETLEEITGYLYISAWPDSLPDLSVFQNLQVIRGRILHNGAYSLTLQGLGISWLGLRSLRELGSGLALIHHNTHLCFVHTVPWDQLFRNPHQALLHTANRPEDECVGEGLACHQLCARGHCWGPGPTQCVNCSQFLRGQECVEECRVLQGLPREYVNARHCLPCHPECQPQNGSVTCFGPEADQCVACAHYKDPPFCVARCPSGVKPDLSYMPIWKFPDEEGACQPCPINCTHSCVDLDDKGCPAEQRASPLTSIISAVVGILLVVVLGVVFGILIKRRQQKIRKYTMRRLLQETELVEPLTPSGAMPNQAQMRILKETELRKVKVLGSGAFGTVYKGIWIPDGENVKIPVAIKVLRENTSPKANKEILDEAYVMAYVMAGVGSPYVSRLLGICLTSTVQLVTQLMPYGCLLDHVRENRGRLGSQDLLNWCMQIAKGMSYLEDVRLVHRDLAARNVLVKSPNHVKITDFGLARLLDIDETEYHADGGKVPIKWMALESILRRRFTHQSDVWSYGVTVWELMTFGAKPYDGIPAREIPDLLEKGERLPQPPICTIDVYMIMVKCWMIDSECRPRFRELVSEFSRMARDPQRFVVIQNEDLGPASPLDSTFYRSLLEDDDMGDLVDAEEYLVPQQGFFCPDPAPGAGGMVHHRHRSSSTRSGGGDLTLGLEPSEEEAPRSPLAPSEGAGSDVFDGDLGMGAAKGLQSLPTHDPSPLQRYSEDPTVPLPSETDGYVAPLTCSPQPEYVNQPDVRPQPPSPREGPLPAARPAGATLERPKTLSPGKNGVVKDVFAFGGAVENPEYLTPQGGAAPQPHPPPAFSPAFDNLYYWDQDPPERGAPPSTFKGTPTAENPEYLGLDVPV
Sequence of Her2 Exon 20 INSYVMA Ba/F3 (P04626 with tags, fused parts or gaps DUP772-775): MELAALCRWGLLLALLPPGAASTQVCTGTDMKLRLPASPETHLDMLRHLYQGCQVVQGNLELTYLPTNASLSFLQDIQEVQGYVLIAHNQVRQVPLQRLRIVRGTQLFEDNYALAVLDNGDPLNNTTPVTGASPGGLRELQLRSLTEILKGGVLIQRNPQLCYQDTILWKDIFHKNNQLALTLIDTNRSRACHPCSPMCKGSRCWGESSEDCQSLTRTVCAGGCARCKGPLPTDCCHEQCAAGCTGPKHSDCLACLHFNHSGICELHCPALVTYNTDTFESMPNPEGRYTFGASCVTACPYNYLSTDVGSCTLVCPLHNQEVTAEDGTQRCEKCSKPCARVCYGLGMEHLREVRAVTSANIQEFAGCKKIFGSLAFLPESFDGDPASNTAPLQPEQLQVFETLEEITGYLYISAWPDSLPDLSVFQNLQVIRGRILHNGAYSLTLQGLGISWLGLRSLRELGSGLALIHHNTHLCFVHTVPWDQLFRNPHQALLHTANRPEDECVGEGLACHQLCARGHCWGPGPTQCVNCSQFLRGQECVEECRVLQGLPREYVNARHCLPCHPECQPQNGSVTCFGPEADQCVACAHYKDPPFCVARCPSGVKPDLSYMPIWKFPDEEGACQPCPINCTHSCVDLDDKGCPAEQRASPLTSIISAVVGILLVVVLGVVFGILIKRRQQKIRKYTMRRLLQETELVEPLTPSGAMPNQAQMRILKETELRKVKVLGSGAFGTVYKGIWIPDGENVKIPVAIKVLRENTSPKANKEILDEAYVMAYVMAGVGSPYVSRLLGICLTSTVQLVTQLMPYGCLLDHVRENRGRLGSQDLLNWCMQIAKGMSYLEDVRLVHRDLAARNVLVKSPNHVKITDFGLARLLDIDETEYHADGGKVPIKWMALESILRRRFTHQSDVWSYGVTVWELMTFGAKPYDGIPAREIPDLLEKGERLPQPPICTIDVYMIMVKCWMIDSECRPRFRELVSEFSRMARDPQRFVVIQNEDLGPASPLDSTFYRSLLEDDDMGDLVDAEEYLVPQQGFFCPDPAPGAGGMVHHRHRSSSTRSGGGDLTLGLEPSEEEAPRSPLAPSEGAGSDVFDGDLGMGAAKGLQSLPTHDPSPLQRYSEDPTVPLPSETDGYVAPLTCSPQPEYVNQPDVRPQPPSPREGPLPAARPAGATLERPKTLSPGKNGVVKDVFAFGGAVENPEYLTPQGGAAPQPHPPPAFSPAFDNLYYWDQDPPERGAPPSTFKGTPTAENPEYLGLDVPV

The pIC50 is −log10 of the IC50, conventionally taken in molar units. As to `C=CC(=O)Nc1cc(-c2c(-c3ccc(N4CCN(C(C)C)CC4)cc3)[nH]c3nccc(Cl)c23)ccc1C` [Example 41, N-(5-(4-chloro-2-(4-(4-isopropylpiperazin-1-yl)phenyl)-1H-pyrrolo[2,3-b]pyridin-3-yl)-2-methylphenyl)acrylamide], the pIC50 was not below 7.00 against HER2 INS YVMA; not below 7.00 with H1975; 6.30 to 7.00 in the data set on A431; not below 7.00 at EGFR T790ML858R; not below 7.00 on EGFR wt. The “Stability in presence of mouse liver microsomes without cofactor NADPH [% remaining after 50 min]” value in data set [1] was more than 99 % remaining after 50 min. Moreover, the GI50 in data set [2] and in data set [3] was not above 100 nM throughout.
Regarding `C=CC(=O)Nc1cc(-c2c(-c3cccc(CN4CCOCC4)c3)[nH]c3ncccc23)ccc1C` [Example 82, N-(2-methyl-5-(2-(3-(morpholinomethyl)phenyl)-1H-pyrrolo[2,3-b]pyridin-3-yl)phenyl)acrylamide], the pIC50 against HER2 INS YVMA is 5.00 to 6.00; with H1975, 6.00 to 6.30; with A431, 4.00 to 6.00; at EGFR T790ML858R, not below 7.00; against EGFR wt it was 6.30 to 7.00. Also, the “Stability in presence of mouse liver microsomes without cofactor NADPH [% remaining after 50 min]” value in data set [1] is 97 % remaining after 50 min. In addition, the GI50 in data set [2] and in data set [3] was 1000 to 10000 nM each time.
Consider `C=CC(=O)N1CCc2ccc(-c3c(-c4cccc(OCCN5CCCC5)c4)[nH]c4nccc(Cl)c34)cc21` [Example 64, 1-(6-(4-chloro-2-(3-(2-(pyrrolidin-1-yl)ethoxy)phenyl)-1H-pyrrolo[2,3-b]pyridin-3-yl)indolin-1-yl)prop-2-en-1-one], for which the pIC50 is not below 7.00 at HER2 INS YVMA; not below 7.00 with H1975; 6.00 to 6.30 in the data set on A431; not below 7.00 against EGFR T790ML858R; not below 7.00 against EGFR wt. Also, the “Stability in presence of mouse liver microsomes without cofactor NADPH [% remaining after 50 min]” value in data set [1] was more than 99 % remaining after 50 min. The GI50 in data set [2] and in data set [3] was 100 to 500 nM throughout.
On to `C=CC(=O)N1CCc2ccc(-c3c(-c4ccc(N5CCN(C)CC5)cc4)[nH]c4nccc(OC(C)C)c34)cc21` [Example 115, 1-(6-(4-isopropoxy-2-(4-(4-methylpiperazin-1-yl)phenyl)-1H-pyrrolo[2,3-b]pyridin-3-yl)indolin-1-yl)prop-2-en-1-one 2,2,2-trifluoroacetate], for which the pIC50 on HER2 INS YVMA is not below 7.00; in the data set with H1975, not below 7.00; in the data set with A431 it was 6.00 to 6.30; on EGFR T790ML858R, not below 7.00; at EGFR wt it was not below 7.00. Also, the “Stability in presence of mouse liver microsomes without cofactor NADPH [% remaining after 50 min]” value in data set [1] is given as more than 99 % remaining after 50 min. In addition, the GI50 in data set [2] and in data set [3] was 100 to 500 nM each time.
In the case of `C=CC(=O)Nc1cc(-c2c(-c3ccc(N(C)CCN(C)C)cc3)[nH]c3ncc(C(=O)OC(C)C)cc23)cc(F)c1C` [Example 172, isopropyl 3-(3-acrylamido-5-fluoro-4-methylphenyl)-2-(4-((2-(dimethylamino)ethyl)(methyl)amino)phenyl)-1H-pyrrolo[2,3-b]pyridine-5-carboxylate], the negative logarithm of the IC50 (pIC50) was not below 7.00 on HER2 INS YVMA; 6.30 to 7.00 in the data set on H1975; 4.00 to 6.00 in the data set on A431; not below 7.00 against EGFR T790ML858R; not below 7.00 against EGFR wt. The “Stability in presence of mouse liver microsomes without cofactor NADPH [% remaining after 50 min]” value in data set [1] is recorded as more than 99 % remaining after 50 min. For the same compound, the GI50 in data set [2] and in data set [3] was 100 to 500 nM each time.
Consider `C=CC(=O)N1CCCc2ccc(-c3c(-c4ccc(OCCN(C)C)cc4)[nH]c4nccc(Cl)c34)cc21` [Example 92, 1-(7-(4-chloro-2-(4-(2-(dimethylamino)ethoxy)phenyl)-1H-pyrrolo[2,3-b]pyridin-3-yl)-3,4-dihydroquinolin-1(2H)-yl)prop-2-en-1-one], for which the pIC50 against HER2 INS YVMA was not below 7.00; in the data set with H1975, 6.00 to 6.30; in the data set on A431 it was 4.00 to 6.00; at EGFR T790ML858R it was not below 7.00; against EGFR wt, not below 7.00. For the same compound, in data set [1], the “Stability in presence of mouse liver microsomes without cofactor NADPH [% remaining after 50 min]” value was more than 99 % remaining after 50 min. Also, the GI50 was 500 to 1000 nM in data set [2] and 1000 to 10000 nM in data set [3].
With `C=CC(=O)Nc1cc(-c2c(-c3ccc(N4CCN(CC)CC4)cc3)[nH]c3ncc(C(=O)OC(C)C)cc23)ccc1C` [Example 157, isopropyl 3-(3-acrylamido-4-methylphenyl)-2-(4-(4-ethylpiperazin-1-yl)phenyl)-1H-pyrrolo[2,3-b]pyridine-5-carboxylate], the negative logarithm of the IC50 (pIC50) was not below 7.00 on HER2 INS YVMA; 6.30 to 7.00 in the data set with H1975; 4.00 to 6.00 in the data set on A431; not below 7.00 against EGFR T790ML858R; not below 7.00 on EGFR wt. Further, the “Stability in presence of mouse liver microsomes without cofactor NADPH [% remaining after 50 min]” value in data set [1] is listed as more than 99 % remaining after 50 min. Besides, the GI50 in data set [2] and in data set [3] was 100 to 500 nM in each case.
Take `C=CC(=O)Nc1cc(-c2c(-c3cnc(N4CCN(C)CC4)nc3)[nH]c3nccc(Cl)c23)ccc1C` [Example 39, N-(5-(4-chloro-2-(2-(4-methylpiperazin-1-yl)pyrimidin-5-yl)-1H-pyrrolo[2,3-b]pyridin-3-yl)-2-methylphenyl)acrylamide]: the pIC50 against HER2 INS YVMA was 6.30 to 7.00; in the data set with H1975, 6.30 to 7.00; in the data set on A431, 4.00 to 6.00; at EGFR T790ML858R, not below 7.00; against EGFR wt it was not below 7.00. For the same compound, the “Stability in presence of mouse liver microsomes without cofactor NADPH [% remaining after 50 min]” value in data set [1] is listed as more than 99 % remaining after 50 min. In addition, the GI50 lay in the range of 500 to 1000 nM in data set [2] and 1000 to 10000 nM in data set [3].
As for `C=CC(=O)N1CCCc2ccc(-c3c(-c4ccc(N5CCN(C)CC5)nc4)[nH]c4nccc(Cl)c34)cc21` [Example 93, 1-(7-(4-chloro-2-(6-(4-methylpiperazin-1-yl)pyridin-3-yl)-1H-pyrrolo[2,3-b]pyridin-3-yl)-3,4-dihydroquinolin-1(2H)-yl)prop-2-en-1-one], the pIC50 against HER2 INS YVMA was 6.30 to 7.00; in the data set with H1975, 6.00 to 6.30; with A431 it was 4.00 to 6.00; at EGFR T790ML858R it was not below 7.00; against EGFR wt it was not below 7.00. For the same compound, in data set [1], the “Stability in presence of mouse liver microsomes without cofactor NADPH [% remaining after 50 min]” value is on record as more than 99 % remaining after 50 min. Besides, the results for the GI50 in data set [2] and in data set [3] were 500 to 1000 nM and 1000 to 10000 nM, respectively.
For `C=CC(=O)N1CCCc2ccc(-c3c(-c4ccc(N5CCN(C(C)C)CC5)cc4)[nH]c4nccc(Cl)c34)cc21` [Example 91, 1-(7-(4-chloro-2-(4-(4-isopropylpiperazin-1-yl)phenyl)-1H-pyrrolo[2,3-b]pyridin-3-yl)-3,4-dihydroquinolin-1(2H)-yl)prop-2-en-1-one], the pIC50 at HER2 INS YVMA is not below 7.00; in the data set with H1975, 6.30 to 7.00; with A431, 4.00 to 6.00; against EGFR T790ML858R, not below 7.00; on EGFR wt, not below 7.00. For the same compound, the “Stability in presence of mouse liver microsomes without cofactor NADPH [% remaining after 50 min]” value in data set [1] is given as more than 99 % remaining after 50 min. Further, the GI50 in data set [2] and in data set [3] was 500 to 1000 nM throughout.
On to `C=CC(=O)N1CCc2ccc(-c3c(-c4ccc(N(C)CCN(C)C)cc4)[nH]c4nccc(Cl)c34)cc21` [Example 65, 1-(6-(4-chloro-2-(4-((2-(dimethylamino)ethyl)(methyl)amino)phenyl)-1H-pyrrolo[2,3-b]pyridin-3-yl)indolin-1-yl)prop-2-en-1-one], for which the pIC50 against HER2 INS YVMA is not below 7.00; with H1975 it was not below 7.00; in the data set with A431, 6.00 to 6.30; on EGFR T790ML858R, not below 7.00; on EGFR wt it was not below 7.00. Moreover, the “Stability in presence of mouse liver microsomes without cofactor NADPH [% remaining after 50 min]” value in data set [1] is listed as more than 99 % remaining after 50 min. Further, the GI50 was in the range of 100 to 500 nM in data set [2] and 500 to 1000 nM in data set [3].
